From the supplement of paper PMC11208160

Experiment: recombinant barcode read abundance after kanamycin selection (control-corrected) (log10(CPM+1)); higher = more efficient recombination; sequences stand for … in AGTGCAGAGAAAATCGGCCAGTTTTCTCTGCCTGCAGTCCGCATGCCGT…ATTTATGCAGCGGACTGCCTTTCTCCCAAAGTGATAAACCGGACAGTATCATGGACCGGTTTTCCCGGTAATCCGTATTTGCAAGGTTGGTTTCACT; site = the 11-nt target
Description: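 Same pooled E. coli target screen (IS621 bridge recombinase, kanamycin selection, control-corrected CPM, mean of 2 biological replicates). Here the two core-binding nucleotides of the LTG and RTG of the bridge RNA target-binding loop are mutated. Target and donor CT cores are held constant, and the other 9 guide positions match the target. The target is read from the library oligo sequence. Molecule = full bridge RNA written as DNA: nt 1-80 from the library oligo, rest WT scaffold.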

| Sequence | recombinant barcode read abundance (log10) |
| --- | --- |
| AAACATGCTTGGGTTCTAACCTGTTGCCTTA [AAACATGCTAG_LTGcore_CT_RTGcore_TA] (site AAACATGCTAG) (LTG core: CT, RTG core: TA) | 0.485 |
| AAACATGCTTGGGTTCTAACCTGTTGCCTTT [AAACATGCTAG_LTGcore_CT_RTGcore_AA] (site AAACATGCTAG) (LTG core: CT, RTG core: AA) | 0.865 |
| AAACATGGGTGGGTTCTAACCTGTTGCCTCC [AAACATGCTAG_LTGcore_GG_RTGcore_GG] (site AAACATGCTAG) (LTG core: GG, RTG core: GG) | 0.137 |
| AAACATGTGTGGGTTCTAACCTGTTGCCTCA [AAACATGCTAG_LTGcore_TG_RTGcore_TG] (site AAACATGCTAG) (LTG core: TG, RTG core: TG) | 0.015 |
| ACGGGACATTGGGTTCTAACCTGTTGCAGAG [ACGGGACCTCT_LTGcore_AT_RTGcore_CT] (site ACGGGACCTCT) (LTG core: AT, RTG core: CT) | 0.0817 |
| ACGGGACCGTGGGTTCTAACCTGTTGCAGAG [ACGGGACCTCT_LTGcore_CG_RTGcore_CT] (site ACGGGACCTCT) (LTG core: CG, RTG core: CT) | 1.86 |
| ACGGGACCTTGGGTTCTAACCTGTTGCAGCA [ACGGGACCTCT_LTGcore_CT_RTGcore_TG] (site ACGGGACCTCT) (LTG core: CT, RTG core: TG) | 0.0129 |
| ACGGGACCTTGGGTTCTAACCTGTTGCAGGT [ACGGGACCTCT_LTGcore_CT_RTGcore_AC] (site ACGGGACCTCT) (LTG core: CT, RTG core: AC) | 0.534 |
| ACGGGACCTTGGGTTCTAACCTGTTGCAGTC [ACGGGACCTCT_LTGcore_CT_RTGcore_GA] (site ACGGGACCTCT) (LTG core: CT, RTG core: GA) | 0.425 |
| ACGGGACGTTGGGTTCTAACCTGTTGCAGAG [ACGGGACCTCT_LTGcore_GT_RTGcore_CT] (site ACGGGACCTCT) (LTG core: GT, RTG core: CT) | 0.463 |
| ACGGGACTATGGGTTCTAACCTGTTGCAGAG [ACGGGACCTCT_LTGcore_TA_RTGcore_CT] (site ACGGGACCTCT) (LTG core: TA, RTG core: CT) | 0.0145 |
| ACGGGACTCTGGGTTCTAACCTGTTGCAGGA [ACGGGACCTCT_LTGcore_TC_RTGcore_TC] (site ACGGGACCTCT) (LTG core: TC, RTG core: TC) | 0 |
| AGGAGGTACTGGGTTCTAACCTGTTGCCTGT [AGGAGGTCTAG_LTGcore_AC_RTGcore_AC] (site AGGAGGTCTAG) (LTG core: AC, RTG core: AC) | 0.183 |
| AGGAGGTATTGGGTTCTAACCTGTTGCCTAT [AGGAGGTCTAG_LTGcore_AT_RTGcore_AT] (site AGGAGGTCTAG) (LTG core: AT, RTG core: AT) | 0.643 |
| AGGAGGTCATGGGTTCTAACCTGTTGCCTAG [AGGAGGTCTAG_LTGcore_CA_RTGcore_CT] (site AGGAGGTCTAG) (LTG core: CA, RTG core: CT) | 0.207 |
| AGGAGGTCATGGGTTCTAACCTGTTGCCTTG [AGGAGGTCTAG_LTGcore_CA_RTGcore_CA] (site AGGAGGTCTAG) (LTG core: CA, RTG core: CA) | 0 |
| AGGAGGTCCTGGGTTCTAACCTGTTGCCTGG [AGGAGGTCTAG_LTGcore_CC_RTGcore_CC] (site AGGAGGTCTAG) (LTG core: CC, RTG core: CC) | 0.227 |

| Sequence | recombinant barcode read abundance (log10) |
| --- | --- |
| AGGAGGTCGTGGGTTCTAACCTGTTGCCTCG [AGGAGGTCTAG_LTGcore_CG_RTGcore_CG] (site AGGAGGTCTAG) (LTG core: CG, RTG core: CG) | 0.384 |
| AGGAGGTCTTGGGTTCTAACCTGTTGCCTAC [AGGAGGTCTAG_LTGcore_CT_RTGcore_GT] (site AGGAGGTCTAG) (LTG core: CT, RTG core: GT) | 0.332 |
| AGGAGGTCTTGGGTTCTAACCTGTTGCCTTA [AGGAGGTCTAG_LTGcore_CT_RTGcore_TA] (site AGGAGGTCTAG) (LTG core: CT, RTG core: TA) | 0.446 |
| AGGAGGTCTTGGGTTCTAACCTGTTGCCTTG [AGGAGGTCTAG_LTGcore_CT_RTGcore_CA] (site AGGAGGTCTAG) (LTG core: CT, RTG core: CA) | 0.336 |
| AGGAGGTGATGGGTTCTAACCTGTTGCCTTC [AGGAGGTCTAG_LTGcore_GA_RTGcore_GA] (site AGGAGGTCTAG) (LTG core: GA, RTG core: GA) | 0.218 |
| AGGAGGTGGTGGGTTCTAACCTGTTGCCTCC [AGGAGGTCTAG_LTGcore_GG_RTGcore_GG] (site AGGAGGTCTAG) (LTG core: GG, RTG core: GG) | 0.0671 |
| AGGAGGTGTTGGGTTCTAACCTGTTGCCTAC [AGGAGGTCTAG_LTGcore_GT_RTGcore_GT] (site AGGAGGTCTAG) (LTG core: GT, RTG core: GT) | 0.0506 |
| AGGAGGTTGTGGGTTCTAACCTGTTGCCTAG [AGGAGGTCTAG_LTGcore_TG_RTGcore_CT] (site AGGAGGTCTAG) (LTG core: TG, RTG core: CT) | 0.42 |
| AGGAGGTTGTGGGTTCTAACCTGTTGCCTCA [AGGAGGTCTAG_LTGcore_TG_RTGcore_TG] (site AGGAGGTCTAG) (LTG core: TG, RTG core: TG) | 0.0756 |
| AGGCCTCACTGGGTTCTAACCTGTTGCCTGT [AGGCCTCCTAG_LTGcore_AC_RTGcore_AC] (site AGGCCTCCTAG) (LTG core: AC, RTG core: AC) | 0.113 |
| AGGCCTCAGTGGGTTCTAACCTGTTGCCTAG [AGGCCTCCTAG_LTGcore_AG_RTGcore_CT] (site AGGCCTCCTAG) (LTG core: AG, RTG core: CT) | 0.0227 |
| AGGCCTCATTGGGTTCTAACCTGTTGCCTAG [AGGCCTCCTAG_LTGcore_AT_RTGcore_CT] (site AGGCCTCCTAG) (LTG core: AT, RTG core: CT) | 0.254 |
| AGGCCTCCCTGGGTTCTAACCTGTTGCCTGG [AGGCCTCCTAG_LTGcore_CC_RTGcore_CC] (site AGGCCTCCTAG) (LTG core: CC, RTG core: CC) | 0.146 |
| AGGCCTCCTTGGGTTCTAACCTGTTGCCTAA [AGGCCTCCTAG_LTGcore_CT_RTGcore_TT] (site AGGCCTCCTAG) (LTG core: CT, RTG core: TT) | 0.109 |
| AGGCCTCCTTGGGTTCTAACCTGTTGCCTAC [AGGCCTCCTAG_LTGcore_CT_RTGcore_GT] (site AGGCCTCCTAG) (LTG core: CT, RTG core: GT) | 1.06 |
| AGGCCTCCTTGGGTTCTAACCTGTTGCCTCC [AGGCCTCCTAG_LTGcore_CT_RTGcore_GG] (site AGGCCTCCTAG) (LTG core: CT, RTG core: GG) | 0.102 |
| AGGCCTCCTTGGGTTCTAACCTGTTGCCTGA [AGGCCTCCTAG_LTGcore_CT_RTGcore_TC] (site AGGCCTCCTAG) (LTG core: CT, RTG core: TC) | 0.578 |
